Patent publication US20240197890A1, “FLAVONE DERIVATIVES AND USES IN TARGETING CK2-MEDIATED DISEASES AND CONDITIONS” (Salk Institute for Biological Studies, priority 2020, published 2024)

Columns and labels:
[1] = tested on: iGluta neurons co-cultured with BD or CT astrocytes; experiment: Neuronal activity of iGluta neurons co-cultured with pretreated astrocytes; format: cell-based, human; conditions: BD astrocytes pretreated 5 h with IL1β and 20 μM compound, compared to vehicle
Source text: Activity of CT astrocytes is also renormalized (C+vs. D+).

[2] = tested on: LPS-induced cytokine release in human iPSC-derived microglia; experiment: Cytokine release assay in LPS-stimulated iPSC-derived microglia; format: cell-based; conditions: 20 μM, 5 hours, panel of 36 cytokines
Method: Cytokine release assay. […] Subsequently, media cleared of cells and debris was collected, snap-frozen and stored at -80 C until processing with the Human Cytokine Array kit (R&D Systems, Catalog #ARY005). Briefly, media was diluted in Array Buffer 4 and incubated with a cocktail of biotinylated detection antibodies for 1 h at room temperature with rocking. The resulting immunocomplexes were incubated with nitrocellulose membranes spotted with capture antibodies overnight at 4 C (see below for full list of targets). The membranes were washed 4× with Wash Buffer, then incubated with IRDye 800CW Streptavidin for 30 minutes at room temperature (1:2000 in Array Buffer 5, LI-COR #926-32230). The membranes were washed 4× and imaged with an Odyssey CLx instrument. Intensity for each spot was quantified with ImageStudio. Technical duplicate values for each target were averaged, and we determined differential cytokine release by microglia exposed to LPS+vehicle versus vehicle only (n=2 biological replicates, two-tailed t-tests, P<0.05).

[3] = tested on: AKT pS473; experiment: Immunofluorescence of AKT pS473 in IL1β-stimulated primary astrocytes; format: cell-based; conditions: IL1-β for 5 h
Method: Immunotluorescence. […] After treatment, cells were fixed with 4% paraformaldehyde solution for 20 min at room temperature and washed 3× with DPBS for 10 min each. The cells were permeabilized using 5% horse serum and 10% Triton X in DPBS for 15 min at room temperature and blocked with 5% horse serum in PBS for 30 min at room temperature. Cells were incubated with primary antibodies in blocking buffer either overnight at 4° C. or for 2 hours at room temperature. After incubation, cells were washed 3× with PBS, blocked using 5% horse serum in PBS for 30 min at room temperature, and incubated with Cy3 red-labeled or AF488 green-labeled secondary antibodies diluted in blocking buffer for 1 hour at room temperature. The cells were washed once with PBS for 10 min, then counter-stained with DAPI. The cells were washed 3× with PBS and mounted with glass coverslips and Immu-Mount solution. Images were obtained with the Zeiss fluorescent microscope. […]

[4] = tested on: LC3-II; experiment: LC3-II in AD patient-derived induced neurons; format: cell-based, human; conditions: 24 h
Method: Western blotting. For drug treatment assays, cells were treated with vehicle (DMSO) or 20 μM compound and stimulated with IL1-B 10 ng/mL for 1 h, 6 h, or 24 h. Cells were dissociated with 1:1 Accutase:papain for 3 min at rt, pelleted for 5 min at 800 g, and washed twice with cold DPBS. Pellets were lysed with RIPA buffer (Sigma R0278) supplemented with Halt protease inhibitor cocktail (Thermo Fisher 78445) and clarified by centrifugation (16,000 g, 10 min, 4° C.). Protein concentration was determined by BCA assay (Thermo Fisher). Proteins were denatured in 1×LDS Buffer and 2.5% beta-mercaptoethanol (X) for 10 min at 70° C., separated on Bolt 4-12% Bis-Tris Plus polyacrylamide gels (Thermo Fisher), transferred to PVDF membranes using the iBlot 2 Dry Blotting System, and blocked with 0.1% casein-PBS (Bio-Rad) for 1 h at room temperature. The blots were incubated with primary antibodies overnight at 4° C. in PBS containing 0.1% casein and 0.2% Tween-20. […] The blots were imaged using the Odyssey CLx imaging system and blots were analyzed on the ImageStudio software (LI-COR).

[5] = biological target: T1, recombinant human CK2a1 kinase (Homo sapiens, UniProt P68400); experiment: In vitro kinase assay (PhosphoSens, Cysteine-Sox sensor peptide); format: biochemical; conditions: FIG. 4A
T1 construct: purchased Thermo Fisher PV3248
T1 sequence (P68400 whole entry): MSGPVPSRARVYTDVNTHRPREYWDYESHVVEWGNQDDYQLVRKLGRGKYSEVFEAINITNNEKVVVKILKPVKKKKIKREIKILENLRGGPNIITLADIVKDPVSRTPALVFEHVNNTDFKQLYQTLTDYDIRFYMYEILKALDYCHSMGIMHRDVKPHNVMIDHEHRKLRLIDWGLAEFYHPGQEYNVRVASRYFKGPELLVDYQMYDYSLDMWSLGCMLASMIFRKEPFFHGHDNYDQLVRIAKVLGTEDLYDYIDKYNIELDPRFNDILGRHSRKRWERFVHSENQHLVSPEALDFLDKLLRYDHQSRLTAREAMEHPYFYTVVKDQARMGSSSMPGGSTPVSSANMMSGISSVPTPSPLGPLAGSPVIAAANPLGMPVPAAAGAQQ
Method: Kinase assays. In vitro kinase assays were run using the Cysteine-Sox-Kinase Sensor AQT0696, 96 assay Kit (AssayQuant Tech, CSKS-AQT0696). […] Slopes corresponding to linear reaction rates were obtained for each compound concentration (RFU/sec), normalized to DMSO controls, and IC50 values were determined by applying the dose response non-linear regression model in GraphPad Prism. For kinase assays using postmortem brain tissue lysates, brain tissues were homogenized at 4° C. using a Bullet Blender (Next Advance) in kinase buffer (20 mM HEPES 7.4 pH, 150 mM NaCl, 1% Triton-X, 1 mM EDTA, 1 mM EGTA plus Halt Protease and Phosphase Inhibitor Cocktail). After sonication and clarification, protein concentration was measured by BCA Assay. CK2 activity was measured as described above, except lysates were used instead of purified kinase at 2 μL/well (˜0.3-0.4 ug protein per reaction). […] Patient lysates were individually preincubated with 20 μM CX4945 for 30 min at room temperature before initiating kinase kinetic assays.

[6] = tested on: AKT pS129; experiment: AKT pS129 levels in IL1β-stimulated primary astrocytes; format: cell-based; conditions: IL1-β for 5 h
Source text: AKT pS129 is a known direct CK2 substrate.

Question: What does the source list for `COc1cc(-c2cc(=O)c3c(O)cc(O)cc3o2)ccc1O` [CHR, chrysoeriol]?
Answer: neuronal activity (mean firing rate) [1]: increased; release of LPS-induced pro-inflammatory cytokines [2]: significantly blocked; AKT pS473 levels [3]: reduced; LC3-II (marker of autophagy/mitophagy) [4]: increased; inhibition of CK2a1 in vitro (activity class in words) [5]: active; AKT pS129 levels [6]: reduced
